Assay results: patent EP4652995A1, “ANTIBACTERIAL COMPOSITION, PHARMACEUTICAL AGENT, AND ANTIBACTERIAL METHOD” (priority 2023, dated 2024)

Test system: vancomycin resistant E.faecium (VRE)
Assay: In vitro proliferation inhibition of E. faecium (OD600)
Type: cell-based
Conditions: pH 7.5; 10 µg/mL V-161, 1 µg/mL niclosamide, alone or in combination; NaTY medium, 37°C, 13 hours; OD600 (Fig. 2)

Row | SMILES | proliferation of bacteria
1 | Cc1ccc2[nH]c(-c3ccc(N(C)C)cc3)nc2c1 [Example V-161, N,N-dimethyl-4-(5-methyl-1H-benzo[d]imidazol-2-yl)aniline] | not completely inhibited
2 | O=C(Nc1ccc([N+](=O)[O-])cc1Cl)c1cc(Cl)ccc1O [niclosamide, 5-chloro-2-hydroxy-N-(2-chloro-4-nitrophenyl)benzamide] | not completely inhibited
